According to patent publication US20030073654A1, “Stabilized transient gene expression” (Genespan Corporation, priority 1996, published 2003):
“And” between values parts separate entries of the source, which are not always exact repeats. Identical values can stand only once. “Also recorded” adds a separate entry of the source. Like-named read-outs stand apart in the source and are kept apart here. Marks after values point to notes of the source that are not given here.

Legend:
[1] = test system: SW480 P3 (ATCC #CCL228) human colon carcinoma cells; assay: Screening assay for enhancement of transient expression (β-galactosidase gene, liposomal transfection, 6-well plates); type: cell-based; conditions: for G Factor (G14): Table 1, values without asterisk, days 4-14 after transfection; for X Factor / K Factor: Table 1; for X Factor: cumulative β-galactosidase vs control, first four days after transfection, compound at the mM given in the table; for K Factor: ratio of first order rate constants of change in expression, control vs compound; for effect on transient expression when present before or during the transfection step: polyanionic carbohydrates, liposomal transfection
From the text: These parameters are called the “X” factor, the “G” factor, and the “K” factor. [formula]
This factor reflects the extent to which a chemical compound added to a transfected cell enhances stabilizes transient expression for the first four days following transfection. […] For example, if expression is doubled in the presence of a compound, […]. […] X may be calculated similarly when the agent in question is a mixture of more than one chemical compound.
Cumulative protein expression, i.e., the values for “A” and “C”, is measured by summing the values measured daily in aliquots of the cultured cells.
2. G factors. G factors differ from the X factor only with respect to the time period evaluated. For calculating a G factor, the amount of protein expressed is measured from days 4-7 or days 4-14, where day 0 is the day on which the foreign DNA is added to the cells. The subscripts denote which of the two time periods provided the basis for measurement. […] As for the X factor, [formula]
3. K factor. The K factor is the ratio of the rate constants for the change in the foreign DNA expression in control transfected cells and in cells exposed to a chemical compound of the subject invention. K is determined according to the following equation: [formula]
wherein “k(DNA)” is the first order rate constant for the change in concentration of the protein expressed from the transgenic DNA, which is expressing protein as a function of time, i.e., [formula]
Values for k(DNA) are derived by using a computer program that plots the log of the foreign protein concentration against time, using the results of transgenic protein measurements that begin about 24 hours after the foreign DNA has been added to the cell. […] However, the program calculates a “best fit” line for each data set, and determines the slope of that portion of the resulting line that corresponds to the period during which protein production is changing. […] Thus, the slope is calculated during this period of decline to provide values for k(DNA) and K that can be compared for the purpose of comparing the efficacy of different chemical compounds.
SW480 P3 (ATCC #CCL228) human colon carcinoma cells (typically, 1×10^6 cells) were plated in the wells of a 6-well tissue culture plate. The number of wells plated reflected the number of days post-transfection during which the experiment would proceed. Each well contained 1 ml of complete media from a 30 ml stock solution containing: 26.4 ml RPMI tissue culture medium, 4 mM L-glutamine, 3.0 ml fetal bovine serum, and 10 μg/ml gentamicin. Cells were cultured at 37° C. in a CO2 incubator with 10% CO2 for 24 hours after being plated, during which time the cells adhered to the plates.
After the 24 hour pre-incubation step, the transfection step was carried out by removing the RPMI and adding 900 μL OPTI-MEM® (Gibco) medium containing 2 μg of VR1412 DNA (Vical, Inc., San Diego, Calif.), which expresses the bacterial β-galactosidase gene under the control of a cytomegalovirus promoter, and 8 μg of a mixture of cationic lipid (1,2-dimyristyloxyproply-3-dimethyl-hydroxyethyl ammonium bromide (e.g., “DMRIE/DOPE”) mixed in equimolar proportions with dioleoylphosphatidylethanolamine) to yield a lipid:DNA molar ratio of 0.99:1. It should be noted that typical transient transfection protocols employ 10 μg DNA per 10^6 cells, but the protocol described here uses less DNA in order to reduce toxicity to the cells. The plates were then incubated for 4 hours at 37° C.
After the 4 hour incubation step, 100 μl of heat deactivated fetal bovine serum (to stop transfection), plus 12.0 μl of 50 mg/ml gentamicin were added to each well.

[2] = pH of aqueous solutions of the compounds; type: physicochemical; conditions: stock solutions prepared in culture media diluted with deionized water
Method: The pH values shown in Table 1 were determined in aqueous solutions made by diluting stock solutions prepared in culture media with deionized water.

[3] = Table 1, days 4-7 after transfection

Compound	G Factor (G14) [1]	X Factor [1]	K Factor [1]	pH (H20) [2]	also measured
N[C@@H](Cc1ccccc1)C(=O)O [PHENYLALANINE]	53	−12	3	6.97	–
CCCCCCc1ccc(C(=O)O)cc1 [4-HEXYLBENZOIC ACID]	–	–	–	6.13	–
NC(=O)NC(CC(=O)O)C(=O)O (racemic) [N-CARBAMYL-DL-ASPARTIC ACID]	115	26	–	4.19	–
Cn1cncc1C[C@H](N)C(=O)O [3-METHYL-L-HISTIDINE]	55	−15	–	7.39	–
ethyoxy benzoic acid	–	–	–	–	effect on transient expression [1]: capable of prolonging transient expression
CCCCCc1ccc(C(=O)O)cc1 [4-PENTYLBENZOIC ACID]	−88	−96	–	–	–
O=C([O-])c1ccccc1.[Na+] [SODIUM BENZOATE]	−6	−15	1	8.14	–
C/C1=C2/[N-][C@H]([C@H](CC(N)=O)[C@@]2(C)CCC(=O)NC[C@@H](C)OP(=O)([O-])O[C@H]2[C@@H](O)[C@@H](n3cnc4cc(C)c(C)cc43)O[C@@H]2CO)[C@]2(C)N=C(/C(C)=C3N=C(/C=C4N=C1[C@@H](CCC(N)=O)C\4(C)C)[C@@H](CCC(N)=O)[C@]\3(C)CC(N)=O)[C@@H](CCC(N)=O)[C@]2(C)CC(N)=O.[CH2-][C@H]1O[C@@H](n2cnc3c(N)ncnc32)[C@H](O)[C@@H]1O.[Co] [COENZYME B12]	51	−17	–	–	–
carboxymethylcellulose	–	–	–	–	effect on transient expression when present before or during the transfection step [1]: blocking effect
CCCCCCCCc1ccc(C(=O)O)cc1 [4-OCTYL BENZOIC ACID]	−665	−2314	–	7.45	–
N[C@@H](Cc1c[nH]c2ccccc12)C(=O)O [TRYPTOPHAN]	67	55	2	6.25	–
CNCC(O)c1ccc(O)c(O)c1 (centres unmarked) [ADRENALINE]	68	49	–	10.29	pH (H20) ([2]; listed as adrenaline): ~10
isobutyl benzoic acid	–	–	–	–	effect on transient expression [1]: capable of prolonging transient expression
CC(C)[C@H](N)C(=O)O [VALINE]	40	−18	2	8.12	–
CSCC[C@H](N)C(=O)O [METHIONINE]	36	2	0	7.41	–
N[C@@H](Cc1c[nH]cn1)C(=O)O [HISTIDINE]	6	–	1, 1	6.75	G Factor (G7) ([1]; Table 1, values marked with asterisk, days 4-7 after transfection): 54
NC(=O)CC[C@H](N)C(=O)O [L-GLUTAMINE]	23	−13	–	7.14	–
N[C@@H](Cc1cc(I)c(O)c(I)c1)C(=O)O [DIIODOTYROSINE]	–	−48	–	7.23	G Factor (G7) [1, 3]: −8*
CCc1ccc(C(=O)O)cc1 [4-ETHYLBENZOIC ACID]	–	–	1 and 2	6	–
NC(=O)SC[C@H](N)C(=O)O [S-CARBAMYL-L-CYSTEINE]	−74	−76	–	6.52	–
O=C(O)CNC(=O)c1ccccc1 [HIPPURIC ACID]	33	2	1	6.46	–
O=S(=O)(O)CCN(CCO)CCO [BES]	–	77 and 57	1, 1	6.64	–
NCCCC[C@H](N)C(=O)O [L-LYSINE]	−10	–	–	8.34	G Factor (G7) [1, 3]: 9

Compound	G Factor (G14) [1]	X Factor [1]	K Factor [1]	pH (H20) [2]	also measured
O=C(O)c1cccnc1 [NICOTINIC ACID]	87	12	1	6.91	–
gentamicin [reference compound]	–	–	–	–	effect on protein production ([1]; control plates 1A (with gentamicin) vs 1B (no gentamicin)): somewhat suppressed protein production
heparan sulfate	–	–	–	–	effect on transient expression when present before or during the transfection step [1]: blocking effect
NC(=O)NCCC[C@H](N)C(=O)O [CITRULLINE]	46	39	1	7.71	–
CCOC(=O)CC[C@H](NCc1ccc(N)cc1)C(=O)OCC [N-(4-AMINOBENZYL)-L-GLUTAMIC DIETHYLESTER]	8	−35	–	6.44	–
CCCCc1ccc(C(=O)O)cc1 [4-BUTYLBENZOIC ACID]	–	–	–	5.94	–
N[C@@H](CCO)C(=O)O [HOMOSERINE]	39	77	–	7.4	–
CCOC(=O)c1ccc(C(C)=O)cc1 [ETHYL 4-ACETYLBENZOATE]	42	49	1	7.59	–
CCOC(=O)CCCC(C)=O [ETHYL 4-ACETYLBUTYRATE]	58	51	1	5.98	–
NCCC[C@H](N)C(=O)O [ORNITHINE]	28	16	–	–	–
O=C(O)CCCCC1CCSS1 (stereo not drawn) [α-lipoic acid, lipoic acid]	–	–	–	–	results when substituted for benzoate buffer ([1]; used in conjunction with chondroitin sulfate as in plates 6 or 13 of Table 9): comparable results
O=C(O)CCCC(=O)O [GLUTARIC ACID]	−77	22	–	3.85	–
N[C@@H](CO)C(=O)O [SERINE]	104	43	1	7.4	–
N[C@@H](Cc1ccc(O)cc1)C(=O)O [TYROSINE]	52	36	2	7.88	–
methoxy benzoic acid	–	–	–	–	effect on transient expression [1]: capable of prolonging transient expression
C[C@H](N)C(=O)O [α-ALANINE]	35	31	–	7.27	–
t-butyl benzoic acid	–	–	–	–	effect on transient expression [1]: capable of prolonging transient expression
hydroxypropyl guaran	–	–	–	–	effect on transient expression [1]: capable of prolonging transient expression; effect on transient expression ([1]; listed as Hydroxypropyl guarans): enhance transient expression to some degree
heparin [reference compound]	–	–	–	–	effect on transient expression when added after the transfection step [1]: effective in enhancing transient expression; also recorded: enhance transient expression; effect on transient expression when present before or during the transfection step [1]: blocking effect; also recorded: blocked transient expression
dermatan sulfate	–	–	–	–	effect on transient expression when present before or during the transfection step [1]: blocking effect
C/C1=C2/[N-][C@H]([C@H](CC(N)=O)[C@@]2(C)CCC(=O)NC[C@H](C)OP(=O)([O-])O[C@H]2[C@@H](O)[C@@H](n3cnc4cc(C)c(C)cc43)O[C@@H]2CO)[C@]2(C)N=C(/C(C)=C3N=C(/C=C4N=C1[C@@H](CCC(N)=O)C\4(C)C)[C@@H](CCC(N)=O)[C@]\3(C)CC(N)=O)[C@@H](CCC(N)=O)[C@]2(C)CC(N)=O.[CH3-].[Co+3] [METHYLCOBALAMIN]	25	1	–	–	–
N-carboxymethylchitosan N,S-sulfate	–	–	–	–	effect on transient expression when present before or during the transfection step [1]: blocking effect
iso-propyl benzoic acid	–	–	–	–	effect on transient expression [1]: capable of prolonging transient expression
